Experimental data from ChEMBL document CHEMBL3046764, “Heterocyclic ortho-quinones, a novel type of Photosystem II inhibitors” (Biochim Biophys Acta, 2001).
Activity calls are given as the source filed them. The calls are words filed in the database; no cut-off is given here.

Biological target: Photosystem II protein D1 (Chlamydomonas reinhardtii) (UniProt P07753)
Assay: Non-competitive displacement of [14C]atrazine from Chlamydomonas reinhardtii photosystem II protein D1 assessed as DCIP-reduction by double-reciprocal plot

Activity: Active
SMILES: CCCCCCCC1=C(Br)c2nc3ccccn3c2C(=O)C1=O
